Measurements from patent US20050107438A1, “Pharmaceutical composition comprising 3-[(2-{[4-(Hexyloxycarbonylaminoiminomethyl) phenylamino]-methyl}-1-methyl-1H-benzimidazol-5-carbonyl)-pyridin-2-yl-amino]-propionic acid ethyl ester or a salt therefore” (Boehringer Ingelheim International GmbH, priority 2003, published 2005).

Assay: Solubility of the compound in water as a function of pH
Type: physicochemical
Source text: Therefore, pantoprazole which serves to raise the pH of the stomach was given to the test subjects in one branch of treatment in the clinical trials.

solubility in water (low pH values): dissolves relatively easily
solubility in water (pH levels above 5, definition of the European Pharmacopoeia): virtually insoluble
Compound: CCCCCCOC(=O)NC(=N)c1ccc(NCc2nc3cc(C(=O)N(CCC(=O)OCC)c4ccccn4)ccc3n2C)cc1 [compound of formula (I), ethyl 3-[(2-{[4-(hexyloxycarbonylaminoiminomethyl)phenylamino]methyl}-1-methyl-1H-benzimidazole-5-carbonyl)pyridin-2-ylamino]propionate]
